Results reported in patent publication US20060025458A1, “Alkylammonium compounds as antifungal and antitrypanosomal agents” (University of Connecticut, priority 2004, published 2006).

Biological target: T1, recombinant PtdSer decarboxylase PfPsd1 (Plasmodium falciparum, UniProt Q9GPP8)
T1 construct: made in house
T1 sequence (Q9GPP8 1-362): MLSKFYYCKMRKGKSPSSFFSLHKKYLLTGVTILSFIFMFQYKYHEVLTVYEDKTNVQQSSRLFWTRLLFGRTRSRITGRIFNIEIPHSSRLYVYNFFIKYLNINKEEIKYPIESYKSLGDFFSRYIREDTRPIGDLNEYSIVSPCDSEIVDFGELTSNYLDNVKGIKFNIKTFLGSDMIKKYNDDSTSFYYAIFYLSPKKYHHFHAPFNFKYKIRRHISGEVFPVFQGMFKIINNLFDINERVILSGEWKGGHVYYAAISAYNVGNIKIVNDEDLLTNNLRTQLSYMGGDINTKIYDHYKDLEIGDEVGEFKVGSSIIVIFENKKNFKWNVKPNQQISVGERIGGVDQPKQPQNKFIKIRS
Experiment: PtdSer decarboxylase assay with recombinant enzyme
Format: biochemical
Conditions: increasing concentrations of G25
Description: FIG. 11A. Effect of G25 on the activity of purified recombinant PfPsd1 enzyme. PfPsd1 activity was determined as described in Materials and Methods by measuring the amount of [^14C]-PtdEtn formed from PtdSer. TLC analysis of PfPsd1-mediated conversion of PtdSer into PtdEtn in the absence and presence of increasing concentrations of G25 was performed.
FIG. 11B. Values are means±standard deviation of triplicate determination of two independent experiments.
Recombinant P. falciparum PtdSer decarboxylase was purified as described by Baunaure and colleagues (Baunaure, et al., 2004) The assay mixture (0.3 ml) contained 0.1 M potassium phosphate buffer (pH 6.8), 0.06% Triton X-100 (w/v), 200 μM L-[dipalmitoyl]phosphatidyl[3-^14C]-serine (1.35 mCi/mmol; Amersham), and the enzyme fraction containing recombinant protein of P. falciparum (240 μg). After incubation at 37° C. for 1 hour, the reaction was terminated by the addition of 400 μl chloroform. Chloroform-soluble materials were extracted, dried, and then dissolved in chloroform/methanol (9:1, v/v). Phospholipids were separated by Thin Layer Chromatography as described above. The radioactive phospholipids were localized and identified using appropriate standards, and radioactivity was quantified using the phosphoimager analyzer (Molecular Dynamics).
G25 inhibits the activity of recombinant P. falciparum PtdSer decarboxylase. […]

For C[N+]1(CCCCCCCCCCCCCCCC[N+]2(C)CCCC2)CCCC1.[Br-].[Br-] [G25, 1,16-hexadecamethylenebis[N-methylpyrrolidinium]dibromide], the “activity of recombinant PfPsd1” value was “steady decrease in the activity”.
